molecular target: S. pneumoniae Topoisomerase IV ATPase (ParE) (Streptococcus pneumoniae serotype 4, UniProt Q59961); assay: S. pneumoniae Topoisomerase IV ATPase inhibition; assay type: biochemical; details: values marked * are an average of two or more data points, read-out: % Inh (13 μM) of S. pneumoniae Topoisomerase IV ATPase
Method in brief: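 Phosphate release by ParE ATPase from S. pneumoniae read colorimetrically (malachite green, 650 nm), enzyme 1.25 nM, ATP 160 μM, salmon sperm DNA present, buffer 20 mM Tris pH 8.0 with 8 mM MgCl2. IC50 over 10 compound concentrations, EDTA (20 μM) and DMSO controls defining inhibition range.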

Sequence of S. pneumoniae Topoisomerase IV ATPase (ParE) (Q59961 whole entry): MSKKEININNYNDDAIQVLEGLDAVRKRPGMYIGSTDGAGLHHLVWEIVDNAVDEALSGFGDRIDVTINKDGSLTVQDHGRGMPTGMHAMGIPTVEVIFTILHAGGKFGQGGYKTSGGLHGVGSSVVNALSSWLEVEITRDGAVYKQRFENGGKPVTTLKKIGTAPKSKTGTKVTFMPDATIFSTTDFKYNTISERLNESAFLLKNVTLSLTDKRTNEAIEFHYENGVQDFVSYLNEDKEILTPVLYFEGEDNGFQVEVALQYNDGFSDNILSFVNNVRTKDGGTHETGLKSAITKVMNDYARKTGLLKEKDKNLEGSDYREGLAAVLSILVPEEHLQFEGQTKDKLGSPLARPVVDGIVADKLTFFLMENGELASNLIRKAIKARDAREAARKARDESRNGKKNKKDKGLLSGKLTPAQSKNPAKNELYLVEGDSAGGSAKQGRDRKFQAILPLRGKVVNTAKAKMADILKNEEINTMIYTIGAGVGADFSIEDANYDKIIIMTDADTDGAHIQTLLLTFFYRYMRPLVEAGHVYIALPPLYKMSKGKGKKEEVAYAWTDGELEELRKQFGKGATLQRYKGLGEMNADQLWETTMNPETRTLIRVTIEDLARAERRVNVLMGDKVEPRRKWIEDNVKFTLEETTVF

Row | Compound | inhibition at 13 µM
1 | COc1cc(Nc2ncc(-c3cccc(/C=C/C(=O)O)c3)c(-n3ccc(C(F)(F)F)n3)n2)cc(OC)c1 [Example 615, (2E)-3-(3-{2-[(3,5-dimethoxyphenyl)amino]-4-[3-(trifluoromethyl)-1H-pyrazol-1-yl]pyrimidin-5-yl}phenyl)prop-2-enoic acid] | 100%
2 | COc1ncc(-c2cnc(Nc3cc(C)cc(C)c3)nc2-n2ccc(C(F)(F)F)n2)cc1C(=O)NS(=O)(=O)C(C)C [Example 826, 5-{2-[(3,5-dimethylphenyl)amino]-4-[3-(trifluoromethyl)-1H-pyrazol-1-yl]pyrimidin-5-yl}-2-methoxy-N-(propan-2-ylsulfonyl)pyridine-3-carboxamide] | 96%
3 | COc1cc(Nc2ncc(-c3cc(C(=O)O)c(=O)n(CCS(C)(=O)=O)c3)c(-n3ccc(C(F)(F)F)n3)n2)cc(OC)c1 [Example 1095, 5-(2-(3,5-dimethoxyphenylamino)-4-(3-(trifluoromethyl)-1H-pyrazol-1-yl)pyrimidin-5-yl)-1-(2-(methylsulfonyl)ethyl)-2-oxo-1,2-dihydropyridine-3-carboxylic acid] | 100%
4 | COc1cc(Nc2ncc(-c3cccc(/C=C/C(=O)O)c3)c(-n3nc(C(F)(F)F)cc3C)n2)cc(C(F)(F)F)c1 [Example 880, (E)-3-(3-(2-(3-methoxy-5-(trifluoromethyl)phenylamino)-4-(5-methyl-3-(trifluoromethyl)-1H-pyrazol-1-yl)pyrimidin-5-yl)phenyl)acrylic acid] | 91%
5 | COc1cc(Nc2ncc(-c3cnc(OC)nc3)c(NCCc3ccncc3)n2)cc(C(F)(F)F)c1 [Example 356, 2′-methoxy-N^2-(3-methoxy-5-(trifluoromethyl)phenyl)-N^4-(2-(pyridin-4-yl)ethyl)-5,5′-bipyrimidine-2,4-diamine] | 86.5%
6 | O=C(O)c1cc(-c2cnc(Nc3ccc(F)c(Cl)c3)nc2-n2ccc(C(F)(F)F)n2)cnc1OCCc1ccncc1 [Example 872, 5-(2-(3-chloro-4-fluorophenylamino)-4-(3-(trifluoromethyl)-1H-pyrazol-1-yl)pyrimidin-5-yl)-2-(2-(pyridin-4-yl)ethoxy)nicotinic acid] | 100%
7 | CONC(=O)c1cncc(-c2cnc(Nc3ccc(F)c(Cl)c3)nc2-n2cc(-c3ccncn3)cn2)c1 [Example 551, 5-{2-[(3-chloro-4-fluorophenyl)amino]-4-[4-(pyrimidin-4-yl)-1H-pyrazol-1-yl]pyrimidin-5-yl}-N-methoxypyridine-3-carboxamide] | 100%
8 | COCCCNc1nc(Nc2ccc(F)c(Cl)c2)ncc1-c1ccc2cc(C(=O)O)[nH]c2c1 [Example 1061, 6-(2-(3-chloro-4-fluorophenylamino)-4-(3-methoxypropylamino)pyrimidin-5-yl)-1H-indole-2-carboxylic acid] | 92%
9 | CC(=O)NCCCNc1nc(Nc2ccc(F)c(Cl)c2)ncc1-c1cncnc1 [Example 377, N-(3-(2-(3-chloro-4-fluorophenylamino)-5,5′-bipyrimidin-4-ylamino)propyl)acetamide] | 78.9%
10 | Cc1cc(C(F)(F)F)nn1-c1nc(Nc2ccc3c(c2)OCO3)ncc1-c1cccc(/C=C/C(=O)O)c1 [Example 658, (2E)-3-(3-{2-(1,3-benzodioxol-5-ylamino)-4-[5-methyl-3-(trifluoromethyl)-1H-pyrazol-1-yl]pyrimidin-5-yl}phenyl)prop-2-enoic acid] | 96%
11 | COCC(COC)Nc1nc(Nc2ccc(F)c(Cl)c2)ncc1-c1cccc(/C=C/C(=O)O)c1 [Example 299] | 98.7%
12 | COc1cc(Nc2ncc(-c3c[nH]c(=O)c(C(=O)O)c3)c(-n3nc(C(F)(F)F)cc3C)n2)cc(OC)c1 [Example 1098, 5-(2-(3,5-Dimethoxyphenylamino)-4-(5-methyl-3-(trifluoromethyl)-1H-pyrazol-1-yl)pyrimidin-5-yl)-2-oxo-1,2-dihydropyridine-3-carboxylic acid] | 100%
13 | COc1ncc(-c2cnc(Nc3cccc(C)c3)nc2-n2ccc(C(F)(F)F)n2)cc1C(=O)O [Example 726, 2-methoxy-5-{2-[(3-methylphenyl)amino]-4-[3-(trifluoromethyl)-1H-pyrazol-1-yl]pyrimidin-5-yl}pyridine-3-carboxylic acid] | 100%
14 | O=C(O)/C=C/c1cccc(-c2cnc(Nc3ccc(F)c(Cl)c3)nc2-n2ccnn2)c1 [Example 333, (2E)-3-(3-{2-[(3-chloro-4-fluorophenyl)amino]-4-(1H-1,2,3-triazol-1-yl)pyrimidin-5-yl}phenyl)prop-2-enoic acid] | 69.8%
15 | COc1ncc(-c2cnc(Nc3cccc(C(C)=O)c3)nc2-n2nc(C(F)(F)F)cc2C)cc1C(=O)O [Example 721, 5-{2-[(3-acetylphenyl)amino]-4-[5-methyl-3-(trifluoromethyl)-1H-pyrazol-1-yl]pyrimidin-5-yl}-2-methoxypyridine-3-carboxylic acid] | 100%
16 | COc1ncc(-c2cnc(Nc3ccc(F)c(Cl)c3)nc2-n2ccc(C(F)(F)F)n2)cc1CO [Example 1027, (5-(2-(3-chloro-4-fluorophenylamino)-4-(3-(trifluoromethyl)-1H-pyrazol-1-yl)pryimidin-5-yl)-2-methoxypyridin-3yl)methanol] | 94%
17 | COc1ncc(-c2cnc(Nc3cccc(Cl)c3)nc2-n2ccc(C(F)(F)F)n2)cc1C(=O)O [Example 742, 5-{2-[(3-chlorophenyl)amino]-4-[3-(trifluoromethyl)-1H-pyrazol-1-yl]pyrimidin-5-yl}-2-methoxypyridine-3-carboxylic acid] | 100%
18 | CCOC(=O)c1cncc(-c2cnc(Nc3ccc(F)c(Cl)c3)nc2N2CC(C)OC(C)C2)c1 (stereo not shown) [Example 139, ethyl 5-(2-(3-chloro-4-fluorophenylamino)-4-(2,6-dimethylmorpholino)pyrimidin-5-yl)nicotinate] | 80.1%
19 | COCCCNc1nc(Nc2ccc(F)c(Cl)c2)ncc1-c1nc(C)c(C(=O)O)s1 [Example 509, 2-{2-[(3-chloro-4-fluorophenyl)amino]-4-[(3-methoxypropyl)amino]pyrimidin-5-yl}-4-methyl-1,3-thiazole-5-carboxylic acid] | 100%
20 | CCOC(=O)c1cn(CCOC)c2ccc(-c3cnc(Nc4ccc(F)c(Cl)c4)nc3N3CCOCC3)cc2c1=O [Example 175, ethyl 6-(2-(3-chloro-4-fluorophenylamino)-4-morpholinopyrimidin-5-yl)-1-(2-methoxyethyl)-4-oxo-1,4-dihydroquinoline-3-carboxylate] | 80%
21 | COc1cc(Nc2ncc(-c3cncc(C(=O)CS(C)(=O)=O)c3)c(-n3nc(C(F)(F)F)cc3C)n2)cc(C(F)(F)F)c1 [Example 881, 1-(5-(2-(3-methoxy-5-(trifluoromethyl)phenylamino)-4-(5-methyl-3-(trifluoromethyl)-1H-pyrazol-1-yl)pyrimidin-5-yl)pyridin-3-yl)-2-(methylsulfonyl)ethanone] | 97%
22 | COc1cc(F)cc(Nc2ncc(-c3cnc(OC)c(C(=O)NS(C)(=O)=O)c3)c(-n3ccc(C(F)(F)F)n3)n2)c1 [Example 897, 5-(2-(3-fluoro-5-methoxyphenylamino)-4-(3-(trifluoromethyl)-1H-pyrazol-1-yl)pyrimidin-5-yl)-2-methoxy-N-(methylsulfonyl)nicotinamide] | 100%
